In patent publication US4285949A, “Vincamine derivatives, their preparation and therapeutical use” (Omnichem Societe Anonyme, priority 1978, dated 1981):

Key:
mice = assay: Hypobaric anoxia test on mice; assay type: in vivo, mice (Charles River stock); conditions: intragastric, 15 minutes before; for Survival time: 190 mm Hg (5.25% oxygen), control 39 (±2); for Survival time Variation %: 190 mm Hg, increase vs control animals
Method: Charles River stock mice of the same sex, weighing about 20±2 g are shared into three lots of 10 animals each. The lots 1 and 2 comprise treated animals, i.e. those having received either a substance to be tested or vincamine, together with solvent, at 1 ml/100 g of body weight. The third lot comprises control animals i.e. those having only received solvent at 1 ml/100 g of body weight.
The compounds examined are administered by intragastric route 15 minutes before the experiment.
The animals are placed in an atmosphere impoverished in oxygen by creating a partial vacuum (190 mm Hg, corresponding to 5.25% oxygen), in about 30 seconds.
The survival time of the mice is measured with a chronometer. Said time is increased by the agents capable of enhancing oxygenation of tissues and more particularly brain oxygenation. The percentages of survival time increase with respect to the values obtained for the control animals are calculated.
The doses were selected to obtain a 50-70% increase of the survival time of the animals under the experimental conditions.

[1] = Acute toxicity, LD50 by intravenous route in mice (Lichtfield and Wilcoxon); conditions: mouse, in vivo
Method: The compounds of the invention as well as vincamine were administered by intravenous route to Charles River stock mice. The 50% lethal doses (LD50) where determined graphically according to the method of Lichtfield and Wilcoxon (J. Pharmacol. Exp. Therap. […], 96, 99).

Row | SMILES | Survival time (mice; 20 mg/kg) | Survival time Variation % (mice; 20 mg/kg) | LD50 ([1]; iv) [mg/kg] | Survival time (mice; 200 mg/kg) | Survival time Variation % (mice; 200 mg/kg) | LD50 ([1]; mice, intravenous) [mg/kg] | Survival time (mice; 30 mg/kg) | Survival time Variation % (mice; 30 mg/kg)
1 | CC[C@]12C=CCN3CCc4c(n(c5ccc(Cl)cc45)C(C(=O)OC)=C1)[C@@H]32 [OC-233, 10-Chloro-apo-Δ14-vincamine] | 57 (±4) | +46% | 52 |  |  |  |  | 
2 | CC[C@]12CCCN3CCc4c(n(c5ccccc45)[C@@](O)(C(=O)OC)C1)[C@@H]32 [Vincamine] |  |  |  | 58 (±4) | +49% | 47 |  | 
3 | CC[C@]12C=CCN3CCc4c(n(c5ccc(Cl)cc45)[C@](O)(C(=O)OC)C1)[C@@H]32 [OC-231 E, 10-Chloro-16-epiΔ14-vincamine] |  |  | 47 |  |  |  | 62 (±6) | +55%
4 | CC[C@]12C=CCN3CCc4c(n(c5ccc(Cl)cc45)[C@@](O)(C(=O)OC)C1)[C@@H]32 [OC-231 N, 10-Chloro-Δ14-vincamine] |  |  | 47 |  |  |  | 60 (±1) | +53%
